Patent US20230138246A1, “USE OF DIHYDROBERBERINE OR ITS DERIVATIVES FOR ANTI-AGING” (NANJING NUTRABUILDING BIO-TECH CO., LTD., priority 2021, published 2023)

Tests used:
lamin A [1] = assay: lamin A protein level by western blot in 2DD cells; assay type: cell-based, human; conditions: 5 μmol/L DHB
Experimental: (§1) Whole-cell lysates of AG01972 cells and 2DD cells were collected, separated by SDS polyacrylamide gel electrophoresis, and transferred onto polyvinylidene fluoride membrane using the liquid transfer method. The blots were blocked in 10% skim milk in Tween 0.1% tris-buffered saline 1×1 h at room temperature. The membranes were incubated during the night at 4° C. Antigen-antibody binding was detected using horseradish peroxidase-conjugated species-specific secondary antibodies, followed by enhanced chemiluminescence western blotting detection reagents. The western blot results were quantified using ImageJ software. FIG. 2a is a graph of protein levels of lamin A and progerin in AG01972 cells of DHB supplemented group and non-supplemented group. FIG. 2b is a graph of protein levels of lamin A and progerin in 2DD cells of DHB supplemented group and non-supplemented group.

lamin A [2] = assay: lamin A mRNA expression by quantitative PCR in 2DD cells; assay type: cell-based, human; conditions: 5 μmol/L DHB
Experimental: (§2) The AG01972 primary HGPS cell line was obtained from Coriell Cell Repositories (New Jersey, USA). Human dermal fibroblasts (HDF) were isolated from juvenile foreskins and termed 2DD was also used. AG01972 cells were cultured in T75 tissue culture treated flasks (Fisher, UK) containing Dulbecco's […]+Glutamax (Invitrogen, UK), supplemented with 15% fetal calf serum and 1% penicillin/streptomycin (Invitrogen) in an humidified, 37° C., 5% CO2/95% air incubator. The cells were passaged twice weekly. Cells were plated at a density of 2×10^5 into 9 cm dishes containing 13 mm diameter glass coverslips. Six hours after seeding, the AG01972 cells were treated with 0.1% dimethyl sulfoxide, different concentrations of DHB. DHB treatment was repeated 24 h after the initial treatment. The cells were analyzed after 48 h of treatment.
(§3) Total RNA was isolated using a RNeasy Micro extraction kit according to the manufacturer's protocol. An on-column DNase I digestion was performed to avoid genomic DNA amplification. […] The quantitative PCR analysis was performed following the manufacturers' instructions.
(§4) Quantification of gene expression was based on the DeltaCt Method and normalized on 18S expression. […]
(§5) The protein levels of A-type lamins and mRNA expressions of lamin A and progerin were measured 48 h after DHB treatment on AG01972 cells. […]

progerin [3] = assay: progerin mRNA expression by quantitative PCR in AG01972 cells; assay type: cell-based, human; conditions: 48 h
Experimental: as §2, §3, §4, §5

WI38 cells = assay: cell proliferation (CCK-8) of PD45 WI38 cells; assay type: cell-based, human
Experimental: (§6) Human diploid fibroblast 2BS and WI38 cells were isolated from fetal lung fibroblast tissue. These cell lines were purchased from commercially available sources. Cells were grown in Dulbecco's Modification Eagle's Minimum Essential Medium (DMEM, Life Technologies Inc.) supplemented with 10% fetal bovine serum (FBS; Gibco), 2 mm glutamine, 100 U/ml penicillin, and 100 μg/ml streptomycin, in a humidified atmosphere with 5% CO2 at 37° C. These cells were considered as young at PD30 or below and fully senescent at PD50 or above Cell proliferation was assayed using the CCK-8 method. […] The absorbance values of each well were measured at day 0 (4 h after plating) and on days 1, 2, 3, 4, 5, and 6. […] At the indicated points, cells were harvested with 10% CCK-8 for one hour, and the absorbance was measured at 490 nm. Each data point was measured five times, and each curve was repeated more than three times. […] FIG. 3a is a graph of effect of DHB at different concentrations on the proliferation of PD45 2BS cells and WI38 cells measured by […]. […] FIG. 3d is a graph of quantification of SA-β-gal-positive cell rate of 2BS cells. Quantification analysis of SA-β-gal in FIG. 3d is shown that DHB (about 9%) could delay or reverse the population senescence of 2BS cells remarkably, as compared to the PD 45-DMEM group (about 55%) and PD 45 group (about 60%).

lamin A [4] = assay: lamin A mRNA expression by quantitative PCR in AG01972 cells; assay type: cell-based, human; conditions: 48 h
Experimental: as §2, §3, §4, §5

2BS cells [5] = assay: senescence-associated β-galactosidase (SA-β-gal) assay in 2BS cells; assay type: cell-based, human; conditions: 2BS cells PD45, 0.300 μg/ml DHB; PD 45-DMEM group about 55%, PD 45 group about 60%
Experimental: Human diploid fibroblast 2BS and WI38 cells were isolated from fetal lung fibroblast tissue. These cell lines were purchased from commercially available sources. Cells were grown in Dulbecco's Modification Eagle's Minimum Essential Medium (DMEM, Life Technologies Inc.) supplemented with 10% fetal bovine serum (FBS; Gibco), 2 mm glutamine, 100 U/ml penicillin, and 100 μg/ml streptomycin, in a humidified atmosphere with 5% CO2 at 37° C. These cells were considered as young at PD30 or below and fully senescent at PD50 or above Senescence-associated β-galactosidase (SA-β-gal) assay: 2B S cells (PD45) grown in DMEM with/without 0.300 μg/ml DHB concentration were stained according to the method of Dimri with minor modifications (Dimri, Lee et al. 1995). […] The average value of the percentage of SA-β-gal-positive cells for each set of samples was calculated based on three independent experiments. […] FIG. 3a is a graph of effect of DHB at different concentrations on the proliferation of PD45 2BS cells and WI38 cells measured by MTT-assay. […] FIG. 3d is a graph of quantification of SA-β-gal-positive cell rate of 2BS cells. Quantification analysis of SA-β-gal in FIG. 3d is shown that DHB (about 9%) could delay or reverse the population senescence of 2BS cells remarkably, as compared to the PD 45-DMEM group (about 55%) and PD 45 group (about 60%).

2BS cells [6] = assay: cell proliferation (CCK-8) of PD45 2BS cells; assay type: cell-based, human
Experimental: as §6

[7] = compared with berberine (BBR), Feng et al. 2015; cited from earlier work
progerin [8] = assay: progerin protein level by western blot in AG01972 cells; assay type: cell-based, human; conditions: 5 μmol/L DHB
Experimental: as §1

lamin A [9] = assay: lamin A protein level by western blot in AG01972 cells; assay type: cell-based, human; conditions: 5 μmol/L DHB
Experimental: as §1

[10] = different concentrations of DHB, normalized on 18S

COc1ccc2c(c1OC)CN1CCc3cc4c(cc3C1=C2)OCO4 [DHB, Dihydroberberine]
lamin A protein level (western blot) compared with untreated cells (lamin A [1]): decrease in lamin A
lamin A mRNA expression (lamin A [2]): decrease in lamin A mRNA expression
concentration of maximum effect on progerin mRNA expression (progerin [3]): 5 µmol/L
progerin mRNA expression compared with untreated cells (progerin [3]; [10]): dose-dependent decrease
optimum concentration for proliferation (WI38 cells; PD45 WI38 cells, FIG. 3a): 0.3 µg/mL
effect on proliferation, time course (WI38 cells; WI38 (PD45) cells, 0.3 μg/ml, seven days of incubation): promoted proliferation
concentration of maximum effect on lamin A mRNA expression (lamin A [4]): 5 µmol/L
lamin A mRNA expression compared with untreated cells (lamin A [4]; [10]): dose-dependent decrease
SA-β-gal-positive cell rate (2BS cells [5]): about 9%
effect on proliferation, time course (2BS cells [6]; 2BS (PD45) cells, 0.3 μg/ml, seven days of incubation): promoted proliferation
optimum concentration for proliferation (2BS cells [6]; PD45 2BS cells, FIG. 3a): 0.3 µg/mL
absorption [7]: improved absorption
oral bioavailability [7]: enhanced oral bioavailability
progerin protein content (western blot) compared with untreated cells (progerin [8]): significant decrease in progerin content
lamin A protein level (western blot) compared with untreated cells (lamin A [9]): decrease in lamin A
